Literature values in US20050107350A1, “Method for the treatment or prevention of bone disorders with a cyclooxygenase-2 inhibitor alone and in combination with a bone disorder treatment agent and compositions therewith” (Pharmacia Corporation, priority 2003, published 2005).
Structures can show the parent of a compound that is named as a salt.

Key:
osteoporosis patients [1] = system: osteoporosis patients
patients = details: human, in vivo
osteoporosis patients [2] = details: human, in vivo
rats = details: rat, in vivo

Molecule: NCCCC(O)(P(=O)(O)O)P(=O)(O)O [alendronate, 4-amino-1-hydroxybulylidene bisphophonic acid]
- average improvement of patient's BMD (osteoporosis patients [1]; after three years of treatment): 8%
- patients treated who show an increase in BMD at the lumbar spine (osteoporosis patients [1]; lumbar spine): ≤ 95%
- common side effects (patients): can irritate the lining of the upper gastrointestinal tract

Molecule: CC(C)C[C@H](NC(=O)[C@H](CCCCN)NC(=O)CNC(=O)[C@H](CC(C)C)NC(=O)[C@@H](NC(=O)[C@@H]1CSSC[C@H](N)C(=O)N[C@@H](CO)C(=O)N[C@@H](CC(N)=O)C(=O)N[C@@H](CC(C)C)C(=O)N[C@@H](CO)C(=O)N[C@@H]([C@@H](C)O)C(=O)N1)C(C)C)C(=O)N[C@@H](CO)C(=O)N[C@@H](CCC(N)=O)C(=O)N[C@@H](CCC(=O)O)C(=O)N[C@@H](CC(C)C)C(=O)N[C@@H](Cc1c[nH]cn1)C(=O)N[C@@H](CCCCN)C(=O)N[C@@H](CC(C)C)C(=O)N[C@@H](CCC(N)=O)C(=O)N[C@H](C(=O)N[C@@H](Cc1ccc(O)cc1)C(=O)N1CCC[C@H]1C(=O)N[C@@H](CCCNC(=N)N)C(=O)N[C@H](C(=O)N[C@@H](CC(N)=O)C(=O)N[C@H](C(=O)NCC(=O)N[C@@H](CO)C(=O)NCC(=O)N[C@H](C(=O)N1CCC[C@H]1C(N)=O)[C@@H](C)O)[C@@H](C)O)[C@@H](C)O)[C@@H](C)O [calcitonin]
- improvement of BMD (osteoporosis patients [1]; intranasal, after 2 years of treatment): 1-2%
- common side effects (patients): flushing, nausea, vomiting, and diarrhea

Molecule: O=C(c1ccc(OCCN2CCCCC2)cc1)c1c(-c2ccc(O)cc2)sc2cc(O)ccc12 [raloxifene, Methanone, [6-hydroxy-2-(4-hydroxyphenyl)benzo[b]thien-3-yl] - [4-[2-(1-piperidinyl)ethoxy]phenyl]-, hydrochloride]
- increase of BMD of the lumbar spine and hip (osteoporosis patients [1]; over 2-3 years of treatment): 2-3%
- decrease of vertebral fractures (osteoporosis patients [2]): 50%
- common side effects (patients): leg cramps and hot flashes
- effect on risk of breast cancer (patients): significantly decreases the risk of breast cancer

Molecule: PTH: parathyroid hormone, the only anabolic agent currently available
- increase of BMD in the spine (osteoporosis patients [1]; Neer et al., NEJM 2001): ≤ 13%
- common side effects (patients): nausea, headaches, and leg cramps
- bone tumors (rats): increase in bone tumors
